How the values were obtained:
[1] = biological target: T1, Fumarylacetoacetate hydrolase (WT FAH) (Homo sapiens, UniProt P16930); experiment: STD NMR titration; methyl-TROSY M140 splitting; type: binding
T1 sequence (P16930 2-419): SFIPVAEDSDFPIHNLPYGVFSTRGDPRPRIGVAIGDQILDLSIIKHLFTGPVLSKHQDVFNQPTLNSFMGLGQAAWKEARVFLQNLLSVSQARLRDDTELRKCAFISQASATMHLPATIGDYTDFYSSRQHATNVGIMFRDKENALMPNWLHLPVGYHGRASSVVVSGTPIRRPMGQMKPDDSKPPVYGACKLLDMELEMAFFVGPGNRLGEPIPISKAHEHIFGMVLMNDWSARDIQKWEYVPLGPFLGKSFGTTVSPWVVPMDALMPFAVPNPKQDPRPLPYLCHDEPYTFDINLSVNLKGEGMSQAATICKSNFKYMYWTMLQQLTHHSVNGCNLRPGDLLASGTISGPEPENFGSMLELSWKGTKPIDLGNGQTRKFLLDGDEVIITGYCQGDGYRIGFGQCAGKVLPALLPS

[2] = biological target: T1, Fumarylacetoacetate hydrolase (WT FAH); experiment: STD NMR titration; methyl-TROSY M140 shift; type: binding

## C#Cc1ccncc1 [G1.30.B10]
[1]
  Kd: 235 µM

## Cc1ccnc(NC(=O)c2ccc(C)c(N)c2)c1 [G2.HT1.4]
[2]
  Kd: 21 µM

## C(#Cc1ccncc1)c1ccncc1 [G2.HT1.1]
[2]
  Kd: 20 µM

Reference: publication PMC7916972, “Therapeutic Targeting of Fumaryl Acetoacetate Hydrolase in Hereditary Tyrosinemia Type I” (International Journal of Molecular Sciences, 2021)
